Values quoted from earlier work in publication PMC8661056, “Synthesis and Evaluation of [^11C]7-Halogen-2-Phenyl Isoindolone Derivatives: Potential PET Radioligands for in vivo Imaging of 5-HT2C Receptors” (Frontiers in Neuroscience, 2021).

Key:
[1] = test system: 5-HT2CR; set-up: method as in Kim et al., 2017; settings: rat brain; ref Kim et al., 2017; cited from earlier work
[2] = target: 5HT2CR; set-up: method as in Finnema et al., 2014; settings: ref Finnema et al., 2014; cited from earlier work
[3] = target: 5HT2AR; set-up: method as in Finnema et al., 2014; settings: ref Finnema et al., 2014; cited from earlier work

Structure (SMILES)	ratios of uptake in regions of interest to cerebellum [1]	Ki [2] [nM]	Ki [3] [nM]
C[C@H](Cc1cccc([18F])c1)Oc1nc(N2CCNC[C@H]2C)ncc1F [[^18F]4, [^18F]4-(3-Fluorophenethoxy)pyrimidine]	low to moderate	–	–
COc1cc(CCNCc2ccccc2O[11CH3])c(OC)cc1Br [[^11C]Cimbi-36]	–	1.7	0.5
